# From ChEMBL document CHEMBL4257529, “Antifungal amphiphilic kanamycins: new life for an old drug” (Medchemcomm, 2018)
# Legend:
# Type in all cases: functional
# [1] = system: Fusarium graminearum; assay: Antifungal activity against Fusarium graminearum by microbroth dilution assay
# [2] = system: Escherichia coli; assay: Antibacterial activity against Escherichia coli ATCC 25922 after 12 to 18 hrs
# [3] = system: Fusarium graminearum; assay: Antifungal activity against Fusarium graminearum after 12 to 18 hrs
# [4] = system: Aspergillus flavus; assay: Antifungal activity against Aspergillus flavus after 12 to 18 hrs
# [5] = system: Staphylococcus aureus; assay: Antibacterial activity against Staphylococcus aureus ATCC 25923 after 12 to 18 hrs
# [6] = system: Pseudomonas aeruginosa; assay: Antibacterial activity against Pseudomonas aeruginosa ATCC 27853 by microbroth dilution assay
# [7] = system: Fusarium oxysporum; assay: Antifungal activity against Fusarium oxysporum by microbroth dilution assay
# [8] = system: Rhodotorula mucilaginosa; assay: Antifungal activity against Rhodotorula pilimanae by microbroth dilution assay
# [9] = system: Escherichia coli; assay: Antibacterial activity against Escherichia coli TG1 by microbroth dilution assay
# [10] = system: Staphylococcus aureus; assay: Antibacterial activity against Staphylococcus aureus ATCC 25923 by microbroth dilution assay
# [11] = system: Candida albicans; assay: Antifungal activity against Candida albicans by microbroth dilution assay
# [12] = system: Saccharomyces cerevisiae; assay: Antifungal activity against Saccharomyces cerevisiae W303 by microbroth dilution assay
# [13] = system: Klebsiella pneumoniae; assay: Antibacterial activity against Klebsiella pneumoniae […] by microbroth dilution assay
# [14] = system: Klebsiella pneumoniae; assay: Antibacterial activity against Klebsiella pneumoniae ATCC 700603 by microbroth dilution assay
# [15] = system: Enterococcus faecalis; assay: Antibacterial activity against Enterococcus faecalis ATCC 29212 by microbroth dilution assay
# [16] = system: Cryptococcus neoformans; assay: Antifungal activity against Cryptococcus neoformans 94-2586
# [17] = system: Candida parapsilosis; assay: Antifungal activity against sensitive Candida parapsilosis; details: Lodderomyces parapsilosis
# [18] = system: Fusarium graminearum; assay: Antifungal activity against Fusarium graminearum B4-5A strain B after 48 hrs by microdilution assay
# [19] = system: Diutina rugosa; assay: Antifungal activity against Candida rugosa 95-967
# [20] = system: Candida albicans; assay: Antifungal activity against Candida albicans B-311
# [21] = system: Candida albicans; assay: Antifungal activity against resistant Candida albicans ATCC 64124
# [22] = system: Candida albicans; assay: Antifungal activity against Candida albicans 94-2181
# [23] = system: Cryptococcus neoformans; assay: Antifungal activity against Cryptococcus neoformans 90-26
# [24] = system: Candida parapsilosis; assay: Antifungal activity against resistant Candida parapsilosis; details: Lodderomyces parapsilosis
# [25] = system: Clavispora lusitaniae; assay: Antifungal activity against Candida lusitaniae 95-767
# [26] = system: Candida albicans; assay: Antifungal activity against sensitive Candida albicans MYA-2876
# [27] = system: Fusarium graminearum; assay: Antifungal activity against Fusarium graminearum B4-5A strain C after 48 hrs by microdilution assay
# [28] = system: Cryptococcus neoformans; assay: Antifungal activity against Cryptococcus neoformans H99; details: var grubii H99
# [29] = system: Fusarium graminearum; assay: Antifungal activity against Fusarium graminearum B4-5A strain D after 48 hrs by microdilution assay
# [30] = system: Candida tropicalis; assay: Antifungal activity against Candida tropicalis 95-41
# [31] = system: Fusarium graminearum; assay: Antifungal activity against Fusarium graminearum B4-5A strain E after 48 hrs by microdilution assay
# [32] = system: Fusarium graminearum; assay: Antifungal activity against Fusarium graminearum B4-5A strain A after 48 hrs by microdilution assay
# [33] = system: Candida albicans; assay: Antifungal activity against Candida albicans ATCC 10231
# [34] = system: Kluyveromyces marxianus; assay: Antifungal activity against Candida pseudotropicalis YOGI
# [35] = system: Aspergillus flavus; assay: Antifungal activity against Aspergillus flavus
# [36] = system: Fusarium graminearum; assay: Antifungal activity against Fusarium graminearum B-4-5A
# [37] = system: Staphylococcus aureus; assay: Antibacterial activity against Staphylococcus aureus ATCC 25923
# [38] = system: Aspergillus niger; assay: Antifungal activity against Aspergillus niger
# [39] = system: Micrococcus luteus; assay: Antibacterial activity against Micrococcus luteus ATCC 10240
# [40] = system: Escherichia coli; assay: Antibacterial activity against Escherichia coli TG1
# [41] = system: Fusarium oxysporum; assay: Antifungal activity against Fusarium oxysporum
# [42] = system: Fusarium graminearum; assay: Antifungal activity against Fusarium graminearum infected in wheat plant assessed as contamination of wheat heads and kernels with deoxynivalenol at 2.8 ml/L (reference value: 1.2 ppm)
# [43] = system: Fusarium graminearum; assay: Antifungal activity against Fusarium graminearum infected in wheat plant assessed as contamination of wheat heads and kernels with deoxynivalenol at 5.5 ml/L (reference value: 1.2 ppm)
smiles,measurement,setting,value
CCCCCCCCO[C@H]1[C@@H](O[C@@H]2[C@@H](O)[C@H](O[C@H]3O[C@H](CN)[C@@H](O)[C@H](O)[C@H]3N)[C@@H](N)C[C@H]2N)O[C@H](CO)[C@@H](O)[C@@H]1O,MIC,[1],20 µg/mL
CCCCCCCCO[C@@H]1[C@@H](O)[C@@H](O[C@@H]2[C@@H](O)[C@H](O[C@H]3O[C@H](CN)[C@@H](O)[C@H](O)[C@H]3N)[C@@H](N)C[C@H]2N)O[C@H](CO)[C@H]1O,MIC,[1],62.5 µg/mL
CCCCCCCCO[C@H]1[C@H](O)[C@@H](N)[C@@H](O[C@H]2[C@H](O)[C@@H](O[C@H]3O[C@H](CO)[C@@H](O)[C@H](O)[C@H]3O)[C@H](N)C[C@@H]2N)O[C@@H]1CN,MIC,[1],> 500 µg/mL
CCCCO[C@H]1[C@H](N)[C@@H](O)[C@@H](O[C@@H]2[C@@H](O)[C@H](O[C@H]3O[C@H](CN)[C@@H](O)[C@H](O)[C@H]3O)[C@@H](N)C[C@H]2N)O[C@@H]1CO,MIC,[2],≥ 250 µg/mL
same,MIC,[3],≥ 500 µg/mL
same,MIC,[4],> 500 µg/mL
same,MIC,[5],125 µg/mL
CCCCCCCOC[C@H]1O[C@H](O[C@@H]2[C@@H](O)[C@H](O[C@H]3O[C@H](CN)[C@@H](O)[C@H](O)[C@H]3O)[C@@H](N)C[C@H]2N)[C@H](O)[C@@H](N)[C@@H]1OCCCCCCC,MIC,[2],125 µg/mL
same,MIC,[3],15.6 µg/mL
same,MIC,[4],500 µg/mL
same,MIC,[5],125 µg/mL
CCCCCCCCO[C@@H]1[C@@H](O[C@H]2O[C@H](CO)[C@@H](O)[C@H](O)[C@H]2O)[C@H](N)C[C@H](N)[C@H]1O[C@H]1O[C@H](CN)[C@@H](O)[C@H](O)[C@H]1N,MIC,[1],> 500 µg/mL
CCCCCCCCOC[C@H]1O[C@H](O[C@@H]2[C@@H](O)[C@H](O[C@H]3O[C@H](CN)[C@@H](O)[C@H](O)[C@H]3O)[C@@H](N)C[C@H]2N)[C@H](O)[C@@H](N)[C@@H]1OCCCCCCCC,MIC,[2],≥ 250 µg/mL
same,MIC,[3],31.3 µg/mL
same,MIC,[4],> 500 µg/mL
same,MIC,[5],≥ 250 µg/mL
CCCCOC[C@H]1O[C@H](O[C@@H]2[C@@H](O)[C@H](O[C@H]3O[C@H](CN)[C@@H](O)[C@H](O)[C@H]3O)[C@@H](N)C[C@H]2N)[C@H](O)[C@@H](N)[C@@H]1OCCCC,MIC,[2],≥ 250 µg/mL
same,MIC,[3],125 µg/mL
same,MIC,[4],> 500 µg/mL
same,MIC,[5],≥ 250 µg/mL
CCCCCCO[C@H]1[C@H](N)[C@@H](O)[C@@H](O[C@@H]2[C@@H](O)[C@H](O[C@H]3O[C@H](CN)[C@@H](O)[C@H](O)[C@H]3O)[C@@H](N)C[C@H]2N)O[C@@H]1CO,MIC,[2],≥ 250 µg/mL
same,MIC,[3],31.3 µg/mL
same,MIC,[4],> 500 µg/mL
same,MIC,[5],64 µg/mL
CCCCCCOC[C@H]1O[C@H](O[C@@H]2[C@@H](O)[C@H](O[C@H]3O[C@H](CN)[C@@H](O)[C@H](O)[C@H]3O)[C@@H](N)C[C@H]2N)[C@H](O)[C@@H](N)[C@@H]1OCCCCCC,MIC,[2],≥ 250 µg/mL
same,MIC,[3],15.6 µg/mL
same,MIC,[4],500 µg/mL
same,MIC,[5],64 µg/mL
CCCCCCCCO[C@@H]1[C@@H](N)[C@@H](O[C@H]2[C@H](O)[C@@H](O[C@H]3O[C@H](CO)[C@@H](O)[C@H](O)[C@H]3O)[C@H](N)C[C@@H]2N)O[C@H](CN)[C@H]1O,MIC,[1],> 500 µg/mL
CCCCCCCCCOC[C@H]1O[C@H](O[C@@H]2[C@@H](O)[C@H](O[C@H]3O[C@H](CN)[C@@H](O)[C@H](O)[C@H]3O)[C@@H](N)C[C@H]2N)[C@H](O)[C@@H](N)[C@@H]1OCCCCCCCCC,MIC,[2],16 µg/mL
same,MIC,[3],125 µg/mL
same,MIC,[4],500 µg/mL
same,MIC,[5],8 µg/mL
CCCCCCCO[C@H]1[C@H](N)[C@@H](O)[C@@H](O[C@@H]2[C@@H](O)[C@H](O[C@H]3O[C@H](CN)[C@@H](O)[C@H](O)[C@H]3O)[C@@H](N)C[C@H]2N)O[C@@H]1CO,MIC,[2],≥ 250 µg/mL
same,MIC,[3],125 µg/mL
same,MIC,[4],> 500 µg/mL
same,MIC,[5],125 µg/mL
"CCCCCCCCO[C@@H]1[C@@H](O)[C@H](O)[C@H](O[C@H]2[C@H](O)[C@@H](O[C@@H]3O[C@@H](CN)[C@H](O)[C@@H](O)[C@@H]3N)[C@H](N)C[C@@H]2N)O[C@H]1CO (single isomer, unassigned)",MIC,[1],7.8 µg/mL
CCCCCCOC[C@@H]1O[C@@H](O[C@@H]2[C@@H](O)[C@H](O[C@@H]3O[C@@H](CN)[C@H](O)[C@@H](O)[C@@H]3N)[C@@H](N)C[C@H]2N)[C@@H](O)[C@H](O)[C@H]1O (stereo in doubt),MIC,[1],125 µg/mL
CCCCCCCCOC[C@@H]1O[C@@H](O[C@@H]2[C@@H](O)[C@H](O[C@@H]3O[C@@H](CN)[C@H](O)[C@@H](O)[C@@H]3N)[C@@H](N)C[C@H]2N)[C@@H](O)[C@H](O)[C@H]1O (stereo in doubt),MIC,[1],31.3 µg/mL
NC[C@H]1O[C@H](O[C@H]2[C@H](O)[C@@H](O[C@H]3O[C@H](CO)[C@@H](O)[C@H](N)[C@H]3O)[C@H](N)C[C@@H]2N)[C@H](N)[C@@H](O)[C@@H]1O [BEKANAMYCIN],MIC,[6],1.95 µg/mL
same,MIC,[7],> 250 µg/mL
same,MIC,[8],> 250 µg/mL
same,MIC,[9],1.95 µg/mL
same,MIC,[10],< 0.98 µg/mL
same,MIC,[1],> 250 µg/mL
same,MIC,[11],> 250 µg/mL
same,MIC,[12],> 250 µg/mL
same,MIC,[13],1.95 µg/mL
same,MIC,[14],1.95 µg/mL
same,MIC,[15],< 0.98 µg/mL
OC(Cn1cncn1)(Cn1cncn1)c1ccc(F)cc1F [FLUCONAZOLE],MIC,[16],1.56 µg/mL
same,MIC,[17],0.12 µg/mL
same,MIC,[18],> 25 µg/mL
same,MIC,[19],> 0.78 µg/mL
same,MIC,[20],> 25 µg/mL
same,MIC,[21],> 200 µg/mL
same,MIC,[22],> 12.5 µg/mL
same,MIC,[23],> 0.195 µg/mL
same,MIC,[24],> 16 µg/mL
same,MIC,[25],1.56 µg/mL
same,MIC,[26],1.56 µg/mL
same,MIC,[27],> 2 µg/mL
same,MIC,[28],1.56 µg/mL
same,MIC,[29],> 12.5 µg/mL
same,MIC,[30],> 25 µg/mL
same,MIC,[31],> 25 µg/mL
same,MIC,[32],> 200 µg/mL
same,MIC,[33],25 µg/mL
CCC(C)n1ncn(-c2ccc(N3CCN(c4ccc(OCC5COC(Cn6cncn6)(c6ccc(Cl)cc6Cl)O5)cc4)CC3)cc2)c1=O (stereo unspecified) [ITRACONAZOLE],MIC,[16],0.06 µg/mL
same,MIC,[17],0.015 µg/mL
same,MIC,[19],0.12 µg/mL
same,MIC,[20],16 to 32 µg/mL
same,MIC,[34],0.125 to 0.8 µg/mL
same,MIC,[21],> 64 µg/mL
same,MIC,[22],8 to 16 µg/mL
same,MIC,[23],0.37 µg/mL
same,MIC,[24],0.5 µg/mL
same,MIC,[25],0.2 µg/mL
same,MIC,[26],> 2 µg/mL
same,MIC,[28],1.56 µg/mL
same,MIC,[30],> 25 µg/mL
same,MIC,[35],0.125 µg/mL
same,MIC,[33],0.75 µg/mL
NC[C@H]1O[C@H](O[C@H]2[C@H](O)[C@@H](O[C@H]3O[C@H](CO)[C@@H](O)[C@H](N)[C@H]3O)[C@H](N)C[C@@H]2N)[C@H](O)[C@@H](O)[C@@H]1O [KANAMYCIN],MIC,[16],> 125 µg/mL
same,MIC,[17],> 250 µg/mL
same,MIC,[36],> 125 µg/mL
same,MIC,[19],> 250 µg/mL
same,MIC,[20],> 250 µg/mL
same,MIC,[34],> 250 µg/mL
same,MIC,[37],< 0.98 µg/mL
same,MIC,[21],> 500 µg/mL
same,MIC,[22],> 250 µg/mL
same,MIC,[38],> 250 µg/mL
same,MIC,[23],> 250 µg/mL
same,MIC,[39],1.95 µg/mL
same,MIC,[40],1.95 µg/mL
same,MIC,[25],> 250 µg/mL
same,MIC,[26],> 250 µg/mL
same,MIC,[41],> 250 µg/mL
same,MIC,[28],> 125 µg/mL
same,MIC,[30],> 250 µg/mL
same,MIC,[35],> 250 µg/mL
same,MIC,[33],> 250 µg/mL
OC(Cc1ccccc1Cl)(Cn1nc[nH]c1=S)C1(Cl)CC1 (stereo unspecified) [PROTHIOCONAZOLE],Activity,[42],1.1 ppm
same,Activity,[43],0.7 ppm
